Experimental findings from PubChem BioAssay AID256 (DTP/NCI, 2004) are described below.

Molecules are shown by their SMILES. Values joined by “and” are separate entries in the source; they are usually repeats but may differ in a detail not shown here. Equal entries are not always repeated. Inconclusive results and toxic doses are left out.

This test has as its system CD2F1 mice, L1210 leukemia ip, survival T/C. As to the kind of experiment: NCI In Vivo Anticancer Drug Screen. Data for tumor model L1210 Leukemia (intraperitoneal) in CD2F1 (CDF1) mice. The note with it: higher = longer survival. The gist of the method: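 Mice carrying a transplanted tumor received test compound or vehicle alone. The value is the measurement in the treated group divided by that in the vehicle-treated control group.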

The mark [1] stands for this setting: endpoint: mean survival time, dose: 100.0 mg/kg/injection, schedule: Q01DX009 (ip), vehicle: saline with Tween-80.
[2] abbreviates: endpoint: mean survival time, dose: 200.0 mg/kg/injection, schedule: Q01DX009 (ip), vehicle: saline with Tween-80.
Where [3] appears, read: endpoint: mean survival time, dose: 400.0 mg/kg/injection, schedule: Q01DX009 (ip), vehicle: saline with Tween-80.
The mark [4] stands for this setting: endpoint: mean survival time, dose: 100.0 mg/kg/injection, schedule: Q01DX001 (ip), vehicle: saline with Tween-80.
The mark [5] stands for this setting: endpoint: mean survival time, dose: 200.0 mg/kg/injection, schedule: Q01DX001 (ip), vehicle: saline with Tween-80.
The mark [6] stands for this setting: endpoint: mean survival time, dose: 400.0 mg/kg/injection, schedule: Q01DX001 (ip), vehicle: saline with Tween-80.
[7] abbreviates: endpoint: mean survival time, dose: 100.0 mg/kg/injection, schedule: Q04DX003 (ip), vehicle: saline with Tween-80.
[8] abbreviates: endpoint: mean survival time, dose: 200.0 mg/kg/injection, schedule: Q04DX003 (ip), vehicle: saline with Tween-80.
The mark [9] stands for this setting: endpoint: mean survival time, dose: 400.0 mg/kg/injection, schedule: Q04DX003 (ip), vehicle: saline with Tween-80.

For `CO[C@@H]1[C@H](O)CC[C@]2(CO2)[C@H]1[C@@]1(C)O[C@@H]1CC=C(C)C`, the T/C was 101 % of control and 103 % of control (endpoint: median survival time, dose: 1.56 mg/kg/injection, schedule: Q01DX009 (ip), vehicle: saline with Tween-80); 93 % of control and 102 % of control (endpoint: median survival time, dose: 3.12 mg/kg/injection, schedule: Q01DX009 (ip), vehicle: saline with Tween-80); 97 % of control and 105 % of control (endpoint: median survival time, dose: 6.25 mg/kg/injection, schedule: Q01DX009 (ip), vehicle: saline with Tween-80); 101 % of control and 102 % of control (endpoint: median survival time, dose: 12.5 mg/kg/injection, schedule: Q01DX009 (ip), vehicle: saline with Tween-80); 101 % of control and 102 % of control (endpoint: median survival time, dose: 25.0 mg/kg/injection, schedule: Q01DX009 (ip), vehicle: saline with Tween-80); 97 % of control and 103 % of control (endpoint: median survival time, dose: 50.0 mg/kg/injection, schedule: Q01DX009 (ip), vehicle: saline with Tween-80).
In the case of `CCCCCCCC(=O)Nc1cccc(C)c1C`, the T/C is 105 % of control under setting [1], 89 % of control under setting [2] and 104 % of control under setting [3].
Turning to `Nc1ccc(C(=O)O)c([N+](=O)[O-])c1`, the T/C runs as follows: (endpoint: mean survival time, dose: 100.0 mg/kg/injection, schedule: Q01DX001 (ip), vehicle: Klucel (hydroxypropylcellulose) (HPC)) 96 % of control; (endpoint: mean survival time, dose: 200.0 mg/kg/injection, schedule: Q01DX001 (ip), vehicle: Klucel (hydroxypropylcellulose) (HPC)) 100 % of control; (endpoint: mean survival time, dose: 400.0 mg/kg/injection, schedule: Q01DX001 (ip), vehicle: Klucel (hydroxypropylcellulose) (HPC)) 100 % of control.
For `CC(C)OP(=O)(OCCCO)C(Cl)Cl` (configuration not stated), the T/C was 100 % of control (endpoint: mean survival time, dose: 100.0 mg/kg/injection, schedule: Q01DX001 (ip), vehicle: saline); 102 % of control (endpoint: mean survival time, dose: 200.0 mg/kg/injection, schedule: Q01DX001 (ip), vehicle: saline); 102 % of control (endpoint: mean survival time, dose: 400.0 mg/kg/injection, schedule: Q01DX001 (ip), vehicle: saline).
Take `O=[N+]([O-])c1ccc(OCCBr)cc1`: the T/C is 91 % of control (endpoint: mean survival time, dose: 100.0 mg/kg/injection, schedule: Q01DX009 (ip), vehicle: other); 98 % of control (endpoint: mean survival time, dose: 200.0 mg/kg/injection, schedule: Q01DX009 (ip), vehicle: other); 94 % of control (endpoint: mean survival time, dose: 400.0 mg/kg/injection, schedule: Q01DX009 (ip), vehicle: other).
On to `c1ccc2c(c1)OCC(CN1CCc3[nH]c4ccccc4c3C1)O2` (configuration not stated), for which the T/C is 106 % of control (endpoint: mean survival time, dose: 50.0 mg/kg/injection, schedule: Q01DX001 (ip), vehicle: saline with Tween-80); 98 % of control under setting [4]; 93 % of control under setting [5].
On to `CCO[C@@H]1c2cc3c(cc2[C@@H](c2cc(OC)c(O)c(OC)c2)[C@H]2C(=O)OC[C@@H]21)OCO3`, for which the T/C by setting is: (endpoint: median survival time, dose: 0.65 mg/kg/injection, schedule: Q01DX009 (ip), vehicle: saline with Tween-80) 108 % of control; (endpoint: median survival time, dose: 1.25 mg/kg/injection, schedule: Q01DX009 (ip), vehicle: saline with Tween-80) 109 % of control; (endpoint: median survival time, dose: 2.5 mg/kg/injection, schedule: Q01DX009 (ip), vehicle: saline with Tween-80) 106 % of control; (endpoint: median survival time, dose: 5.0 mg/kg/injection, schedule: Q01DX009 (ip), vehicle: saline with Tween-80) 101 % of control; (endpoint: median survival time, dose: 10.0 mg/kg/injection, schedule: Q01DX009 (ip), vehicle: saline with Tween-80) 100 % of control and 109 % of control; (endpoint: median survival time, dose: 20.0 mg/kg/injection, schedule: Q01DX009 (ip), vehicle: saline with Tween-80) 94 % of control. In addition, the T/C (endpoint: median survival time, dose: 40.0 mg/kg/injection, schedule: Q01DX009 (ip), vehicle: saline with Tween-80) is 97 % of control.
With `CCC/C=C(\C)C(C#N)CC` (configuration not stated), the T/C was 100 % of control (endpoint: mean survival time, dose: 75.0 mg/kg/injection, schedule: Q01DX001 (ip), vehicle: saline); 97 % of control (endpoint: mean survival time, dose: 150.0 mg/kg/injection, schedule: Q01DX001 (ip), vehicle: saline); 101 % of control (endpoint: mean survival time, dose: 300.0 mg/kg/injection, schedule: Q01DX001 (ip), vehicle: saline).
`O=C(O)/C=C/C(=O)Nc1ccc(C(=O)O)cc1`: the T/C is 94 % of control under setting [4]; 91 % of control under setting [1]; 92 % of control under setting [5]; 96 % of control under setting [2]; 92 % of control under setting [6]; 89 % of control under setting [3].
On to `O=C(O)/C=C\C(=O)Nc1ccccc1NC(=O)/C=C/C(=O)O`, for which the T/C by setting is: (endpoint: mean survival time, dose: 100.0 mg/kg/injection, schedule: Q04DX003 (ip), vehicle: saline) 110 % of control; (endpoint: mean survival time, dose: 200.0 mg/kg/injection, schedule: Q04DX003 (ip), vehicle: saline) 99 % of control; (endpoint: mean survival time, dose: 400.0 mg/kg/injection, schedule: Q04DX003 (ip), vehicle: saline) 101 % of control.
For `O=[N+]([O-])c1ccc(OCCCBr)cc1`, the T/C is 91 % of control under setting [7], 91 % of control under setting [8] and 91 % of control under setting [9].
With `c1ccc(CCCCc2ccc3ccccc3n2)cc1`, the T/C was 93 % of control under setting [1]; 106 % of control under setting [7]; 102 % of control under setting [2]; 100 % of control under setting [8]; 98 % of control under setting [3]; 100 % of control under setting [9].
With `O=C(Nc1ccc(C2=NCCN2)cc1)c1ccc(NC(=O)c2ccc(C3=NCCN3)cc2)cc1`, the T/C is, setting by setting: (endpoint: median survival time, dose: 30.0 mg/kg/injection, schedule: Q01DX009 (ip), vehicle: saline) 166 % of control; (endpoint: median survival time, dose: 60.0 mg/kg/injection, schedule: Q01DX009 (ip), vehicle: saline) 244 % of control.
In the case of `O=C1OC(c2c[nH]c3ccccc23)c2ccccc21` (configuration not stated), the T/C by setting is: under setting [4], 94 % of control; under setting [5], 94 % of control; under setting [6], 87 % of control.
Consider `C[n+]1c2ccccc2cc2ccccc21`, for which the T/C is 102 % of control (endpoint: mean survival time, dose: 12.0 mg/kg/injection, schedule: Q04DX003 (ip), vehicle: saline) and 98 % of control (endpoint: mean survival time, dose: 25.0 mg/kg/injection, schedule: Q04DX003 (ip), vehicle: saline).
`NC(=S)N/N=C/c1cc(=O)c2cc(Cl)ccc2o1`: the T/C runs as follows: (endpoint: median survival time, dose: 75.0 mg/kg/injection, schedule: Q01DX005 (ip), vehicle: DMSO) 95 % of control; (endpoint: median survival time, dose: 150.0 mg/kg/injection, schedule: Q01DX005 (ip), vehicle: DMSO) 98 % of control; (endpoint: median survival time, dose: 300.0 mg/kg/injection, schedule: Q01DX005 (ip), vehicle: DMSO) 97 % of control; (endpoint: median survival time, dose: 600.0 mg/kg/injection, schedule: Q01DX005 (ip), vehicle: DMSO) 96 % of control; (endpoint: median survival time, dose: 1200.0 mg/kg/injection, schedule: Q01DX005 (ip), vehicle: DMSO) 104 % of control.
Turning to `CC(C)(C)S(=O)(=O)C(C)(C)C`, the T/C runs as follows: under setting [7], 98 % of control; under setting [8], 93 % of control; under setting [9], 93 % of control.
On to `C[CH2][Sn]1([CH2]C)[O]CC2OC(n3cc(C)c(=O)[nH]c3=O)CC2[O]1` (configuration not stated), for which the T/C (endpoint: mean survival time, dose: 0.78 mg/kg/injection, schedule: Q01DX005 (ip), vehicle: other) is 94 % of control; the T/C (endpoint: mean survival time, dose: 1.56 mg/kg/injection, schedule: Q01DX005 (ip), vehicle: other) was 104 % of control; the T/C (endpoint: mean survival time, dose: 3.13 mg/kg/injection, schedule: Q01DX005 (ip), vehicle: other) is 110 % of control; the T/C (endpoint: mean survival time, dose: 6.25 mg/kg/injection, schedule: Q01DX005 (ip), vehicle: other) is 107 % of control.
For `CC(=O)NC(C(=O)O)=C(C)C`, the T/C runs as follows: under setting [1], 96 % of control; under setting [2], 105 % of control; under setting [3], 96 % of control.
On to `CCOc1c(F)ccc(F)c1-c1c(F)ccc(F)c1OCC`, for which the T/C runs as follows: under setting [7], 98 % of control; under setting [8], 95 % of control; under setting [9], 106 % of control.
Regarding `O=C(NC1CCCCC1)NC1CCC(CC2CCCCC2)CC1` (configuration not stated), the T/C is 98 % of control under setting [7], 96 % of control under setting [8] and 96 % of control under setting [9].
As to `CCn1c(-c2ccc(OC(C)=O)cc2)c(C)c2cc(OC(C)=O)ccc21`, the T/C (endpoint: median survival time, dose: 25.0 mg/kg/injection, schedule: Q01DX009 (ip), vehicle: Klucel (hydroxypropylcellulose) (HPC)) is 107 % of control; the T/C (endpoint: median survival time, dose: 50.0 mg/kg/injection, schedule: Q01DX009 (ip), vehicle: Klucel (hydroxypropylcellulose) (HPC)) was 102 % of control; the T/C (endpoint: median survival time, dose: 100.0 mg/kg/injection, schedule: Q01DX009 (ip), vehicle: Klucel (hydroxypropylcellulose) (HPC)) was 96 % of control; the T/C (endpoint: median survival time, dose: 200.0 mg/kg/injection, schedule: Q01DX009 (ip), vehicle: Klucel (hydroxypropylcellulose) (HPC)) is 102 % of control; the T/C (endpoint: median survival time, dose: 400.0 mg/kg/injection, schedule: Q01DX009 (ip), vehicle: Klucel (hydroxypropylcellulose) (HPC)) is 90 % of control.
